Where a chain is given by its changes, count along the chain named. Calls of active or inactive are those of the source. The calls are words filed in the database; no cut-off is given here.

Experiment [1] has as its system T1, General amino-acid permease GAP1 (Saccharomyces cerevisiae), P19145 [A393C].
T1 sequence (whole entry): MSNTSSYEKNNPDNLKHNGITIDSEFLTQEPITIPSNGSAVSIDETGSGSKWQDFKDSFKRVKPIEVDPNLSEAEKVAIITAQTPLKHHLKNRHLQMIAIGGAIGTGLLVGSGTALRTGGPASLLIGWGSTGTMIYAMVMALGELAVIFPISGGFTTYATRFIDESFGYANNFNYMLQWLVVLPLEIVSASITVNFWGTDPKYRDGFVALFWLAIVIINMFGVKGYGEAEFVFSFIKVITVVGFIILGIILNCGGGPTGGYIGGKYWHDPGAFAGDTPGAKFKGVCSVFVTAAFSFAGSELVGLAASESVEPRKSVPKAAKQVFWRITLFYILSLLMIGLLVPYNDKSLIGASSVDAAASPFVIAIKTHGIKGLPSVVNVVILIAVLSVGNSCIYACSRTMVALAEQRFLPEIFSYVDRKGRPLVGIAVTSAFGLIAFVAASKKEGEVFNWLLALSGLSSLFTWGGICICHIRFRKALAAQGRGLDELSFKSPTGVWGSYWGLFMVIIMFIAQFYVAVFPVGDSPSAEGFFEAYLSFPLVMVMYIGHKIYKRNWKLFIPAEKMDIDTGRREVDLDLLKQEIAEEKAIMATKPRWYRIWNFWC
The experiment can be described thus: Induction of yeast Gap1 A393C mutant-mediated trehalose activation at 10 mM.

Experiment [2] has as its system T2, General amino-acid permease GAP1 (Saccharomyces cerevisiae), P19145 [L383C].
T2 sequence (whole entry): T1 sequence (whole entry) with L383C, C393A
Kind of experiment: Induction of yeast Gap1 L383C mutant-mediated amino acid uptake at 2 mM in presence of 10 mM MTSEA treated before compound addition.

The test system of experiment [3] is T3, General amino-acid permease GAP1 (Saccharomyces cerevisiae), P19145 [A396C].
T3 sequence (whole entry): T1 sequence (whole entry) with C393A, A396C
Kind of experiment: Induction of yeast Gap1 A396C mutant-mediated amino acid uptake at 2 mM in presence of 10 mM MTSEA treated before compound addition.

The subject of experiment [4] is T4, General amino-acid permease GAP1 (Saccharomyces cerevisiae), P19145 [G390C].
T4 sequence (whole entry): T1 sequence (whole entry) with G390C, C393A
Kind of experiment: Induction of yeast Gap1 G390C mutant-mediated trehalose activation at 10 mM.

The test system is the same in experiment [5]. The experiment can be described thus: Induction of yeast Gap1 G390C mutant-mediated amino acid uptake at 2 mM in presence of 10 mM MTSEA treated before compound addition.

For the compound `NC(=O)NCCC[C@H](N)C(=O)O`, the result in experiment [1] and in experiment [4] was inactive. The result in experiment [2], in experiment [3] and in experiment [5] was Active.

The record behind these values is ChEMBL document CHEMBL1221220, “Transport and signaling via the amino acid binding site of the yeast Gap1 amino acid transceptor” (Nat Chem Biol, 2009).
